{"source": "patent US20150297579A1", "about": "“TREATMENT OF CANCER WITH POMALIDOMIDE IN A RENALLY IMPAIRED SUBJECT” (priority 2012, published 2015)", "tested_on": "patients with relapsed/refractory multiple myeloma (RRMM)", "test": "POM+LoDEX vs. HiDEX in RRMM: analysis of patients with moderate renal impairment", "assay_type": "in vivo, human", "protocol": "Randomization was 2:1 to POM 4 mg (Day 1 to Day 21)+DEX 40 mg (20 mg for patients aged >75 y) qw; or DEX 40 mg (20 mg for patients aged >75 y) (Day 1-Day 4, Day 9-Day 12, and Day 17-Day 20) in a 28-D cycle. Treatment continued until PD or unacceptable adverse event (AE). The primary endpoint was progression-free survival (PFS). Secondary endpoints included overall survival (OS) and AEs. This analysis examined patients with or without moderate RI (CrCl<60 vs.≧60 mL/min).", "data": [{"molecule": "C[C@@H]1C[C@H]2[C@@H]3CCC4=CC(=O)C=C[C@]4(C)[C@@]3(F)[C@@H](O)C[C@]2(C)[C@@]1(O)C(=O)CO", "note": "[HiDEX, (8S,9R,10S,11S,13S,14S,16R,17R)-9-fluoro-11,17-dihydroxy-17-(2-hydroxyacetyl)-10,13,16-trimethyl-6,7,8,9,10,11,12,13,14,15,16,17-dodecahydro-3H-cyclopenta[a]phenanthren-3-one]", "values": [{"measurement": "Median OS (mo)", "setting": "CrCl <60 mL/min (moderate RI)", "result": 4.6, "unit": "mo"}, {"measurement": "Median PFS (mo)", "setting": "CrCl <60 mL/min (moderate RI)", "result": 1.6, "unit": "mo"}, {"measurement": "Median OS (mo)", "setting": "CrCl ≧60 mL/min", "result": 9.2, "unit": "mo"}, {"measurement": "Median PFS (mo)", "setting": "CrCl ≧60 mL/min", "result": 1.8, "unit": "mo"}, {"measurement": "Discontinuation due to AE", "setting": "moderate RI", "result": 5, "unit": "%"}, {"measurement": "Gr 3/4 AE: anemia", "setting": "moderate RI", "result": 34, "unit": "%"}, {"measurement": "Gr 3/4 AE: infection", "setting": "moderate RI", "result": 24, "unit": "%"}, {"measurement": "Gr 3/4 AE: neutropenia", "setting": "moderate RI", "result": 15, "unit": "%"}, {"measurement": "Discontinuation due to AE", "setting": "no moderate RI", "result": 7, "unit": "%"}, {"measurement": "Gr 3/4 AE: anemia", "setting": "normal renal function", "result": 26, "unit": "%"}, {"measurement": "Gr 3/4 AE: infection", "setting": "normal renal function", "result": 23, "unit": "%"}, {"measurement": "Gr 3/4 AE: neutropenia", "setting": "normal renal function", "result": 15, "unit": "%"}]}]}
